The values below come from publication PMC4783179 (The Journal of comparative neurology, 2015).

Series [1] deals with 5-HT1A receptors. To be noted: ref Wooten et al., cited from earlier work.
Series [2] concerns rabbits. Particulars: intravenous, 14 consecutive days, ref PDSP data base; cited from earlier work.
Series [3] concerns rabbits. The series is described as follows: 14-Day Toxicity Study of FCWAY, intravenous. The format is in vivo. To be noted: from rabbit 0.3 mg/kg/day.
Series [4] has as its system serotonin release in the rat frontal cortex. To be noted: ref Mukaida et al., 2007; cited from earlier work.
Series [5] has as its system hippocampal extracellular serotonin levels. Particulars: mice; ref Whittington and Virag, 2006; cited from earlier work.
In series [6] the test system is human P-glycoprotein. Particulars: cited from earlier work.
The test system of series [7] is human. To be noted: ref PDSP data base; cited from earlier work.
The conditions of series [8]: humans, with disulfiram; ref Ryu et al., 2007; cited from earlier work.
The conditions of series [9]: humans, baseline and with disulfiram; ref Ryu et al., 2007; cited from earlier work.
The conditions of series [10]: rat, in vivo; cited from earlier work.

Several values for one entry are separate records, joined by “and”; a condition that tells them apart may be missing. Equal values may be shown once. Read-outs that look alike come from different tables or passages of the source. A value given as a limit tells only on which side of the number the result lay.

For the compound `COc1ccccc1N1CCN(CCN(C(=O)C2CCC(CF)CC2)c2ccccn2)CC1` (single isomer, unassigned) [cis-isomer of Mefway], the “Binding compared to trans-isomer” value in series [1] (2011a) is reported as “lower binding”.

Take `COc1ccccc1N1CCN(CCN(C(=O)C2CCCC(CF)C2)c2ccccn2)CC1` (stereo not drawn) [3-Mefway analog]: the “In vivo binding properties compared to 4-Mefway” value in series [1] (2014) is listed as “lower in vivo binding properties”.

As to `COc1ccccc1N1CCN(CCN(C(=O)C2CCC(F)CC2)c2ccccn2)CC1` (stereo not drawn) [FCWAY], in series [2], the No-effect level is 0.3 mg/kg body weight/day. The “Human equivalent dose (HED) of the no-effect level” value in series [3] was found to be 0.097 mg/kg.

Take `FC(F)OC(Cl)C(F)(F)F` (stereo not drawn) [Isoflurane]: in series [4], the “Serotonin release, frontal cortex” value was < 40 % of awake state. Moreover, the “Hippocampal extracellular serotonin levels” value in [5] is recorded as < 40 % of baseline.

For the compound `COc1ccccc1N1CCN(CCN(C(=O)c2ccc(F)cc2)c2ccccn2)CC1` [MPPF], the “Substrate of human P-glycoprotein” value in [6] is “not being suitable substrates”.

Regarding `COc1ccccc1N1CCN(CCN(C(=O)C2CCCCC2)c2ccccn2)CC1` [WAY-100635, N-{2-[4-(2-methoxyphenyl)piperazin-1-yl]ethyl}-N-(pyridine-2-yl)cyclohexanecarboxamide], the “Substrate of human P-glycoprotein” value in series [6] (ref Tournier et al., 2011) is recorded as “not being suitable substrates”. Also, the “Daily dose safely used in human” value in series [7] is listed as “up to 700 μg/kg”.

On to `COc1ccccc1N1CCN(CCN(C(=O)C2CCC([18F])CC2)c2ccccn2)CC1` (stereo not drawn) [^18F-FCWAY], for which, in series [8], the “Decrease of plasma clearance compared to baseline” value is 47%. Moreover, the Plasma free fraction in [9] is 13% and ~ 13%.

As to `O=C(O)[C@H]1CC[C@H](C[18F])CC1` [^18F-FMCHA], in series [10], the “Brain penetration and retention” value was “poor penetration and retention”.
